Measured values as given in patent US12077503B2, “Substituted cyclic amides and their use as herbicides” (FMC CORPORATION, priority 2015, dated 2024).

Tests used:
Format in all cases: in vivo
[1] = test system: giant foxtail (Setaria faberi); assay: Test G Pre-Emergence Protocol; details: evaluated after 13 days
Outline: (§1)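 Pots of seeds in standard soil were grown for one day in a glasshouse (24/16 °C day/night, 14 h light, 65% humidity), then sprayed with compound in acetone/water 50:50 with 0.5% Tween 20 at 15.625, 62.5 or 250 g/ha. Damage was scored after 13 days on a 0 (none) to 100 (total) scale.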

corn (Zea mays) [2] = assay: Test G Pre-Emergence Protocol; details: evaluated after 13 days
Outline: as §1

[3] = test system: ivy-leaved morning glory (Ipomoea hederacea); assay: Test G Pre-Emergence Protocol; details: evaluated after 13 days
Outline: as §1

[4] = test system: barnyardgrass (Echinochloa crus-galli); assay: Test G Pre-Emergence Protocol; details: evaluated after 13 days
Outline: as §1

[5] = test system: giant foxtail (Setaria faberi); assay: Test G Post-Emergence Protocol
Method: (§2) Seeds of corn (Zea mays), giant foxtail (Setaria faberi), barnyardgrass (Echinochloa crus-galli), ivy-leaved morning glory (Ipomoea hederacea), redroot pigweed (Amaranthus retroflexus) and velvetleaf (Abutilon theophrasti) were sown in standard soil in pots. After cultivation for 8 days under controlled conditions in a glasshouse (at 24/16° C., day/night; 14 hours light; 65% humidity), the plants were sprayed with an aqueous spray solution derived from the formulation of the technical active ingredient in acetone/water (50:50) solution containing 0.5% Tween 20 (polyoxyethylene sorbitan monolaurate, CAS RN 9005-64-5) to give a final dose of 15.625, 62.5 or 250 g/ha of test compound.
(§3) The test plants were then grown on under controlled conditions in a glasshouse (at 24/16° C., day/night; 14 hours light; 65% humidity) and watered twice daily. After 13 days the test was evaluated (100=total damage to plant; 0=no damage to plant). A dash (-) means no test result.

[6] = test system: redroot pigweed (Amaranthus retroflexus); assay: Test G Post-Emergence Protocol
Method: as §2, §3

corn (Zea mays) [7] = assay: Test G Post-Emergence Protocol
Method: as §2, §3

[8] = test system: velvetleaf (Abutilon theophrasti); assay: Test G Post-Emergence Protocol
Method: as §2, §3

[9] = test system: ivy-leaved morning glory (Ipomoea hederacea); assay: Test G Post-Emergence Protocol
Method: as §2, §3

[10] = test system: barnyardgrass (Echinochloa crus-galli); assay: Test G Post-Emergence Protocol
Method: as §2, §3

[11] = 62.5 g ai/ha, 100=total damage to plant, 0=no damage to plant
[12] = 15.625 g ai/ha, evaluated after 13 days (100=total damage to plant; 0=no damage to plant)
[13] = 62.5 g ai/ha, evaluated after 13 days
[14] = 250 g ai/ha, evaluated after 13 days

SMILES: CN1C[C@H](c2cccc(C(F)(F)F)c2)[C@@H](C(=O)Nc2cccnc2F)C1=O [Compound 1397]
- Foxtail, Giant damage rating (100=total damage to plant; 0=no damage to plant) ([1]; 15.625 g ai/ha): 90
- Foxtail, Giant damage rating (100=total damage to plant; 0=no damage to plant) ([1]; 250 g ai/ha): 90
- pest or weed control at 62.5 g/ha ([1]; Setaria faberi, pre-emergence, 312 h, 62.5 g ai/ha, 100=total damage to plant, 0=no damage to plant, read-out: plant damage rating, Foxtail, Giant): 90%
- Corn damage rating (100=total damage to plant; 0=no damage to plant) (corn (Zea mays) [2]; 15.625 g ai/ha): 80
- Corn damage rating (100=total damage to plant; 0=no damage to plant) (corn (Zea mays) [2]; 250 g ai/ha): 90
- plant injury at 62.5 g/ha (corn (Zea mays) [2]; Zea mays, pre-emergence, 312 h, 62.5 g ai/ha, 100=total damage to plant, 0=no damage to plant, read-out: plant damage rating, Corn): 80%
- Morningglory, Ivy-leaved damage rating (100=total damage to plant; 0=no damage to plant) ([3]; 250 g ai/ha): 80
- pest or weed control at 15.625 g/ha ([3]; Ipomoea, pre-emergence, 312 h, 15.625 g ai/ha, read-out: Morning-glory, Ivy-leaved damage rating (100=total damage to plant; 0=no damage to plant)): 60%
- pest or weed control at 62.5 g/ha ([3]; Ipomoea, pre-emergence, 312 h, 62.5 g ai/ha, 100=total damage to plant, 0=no damage to plant, read-out: plant damage rating, Morningglory, Ivy-leaved): 70%
- Barnyardgrass damage rating (100=total damage to plant; 0=no damage to plant) ([4]; 250 g ai/ha): 90
- pest or weed control at 15.625 g/ha ([4]; Echinochloa crus-galli, pre-emergence, 312 h, 15.625 g ai/ha, read-out: Barnyard grass damage rating (100=total damage to plant; 0=no damage to plant)): 90%
- pest or weed control at 62.5 g/ha ([4]; Echinochloa crus-galli, pre-emergence, 312 h, 62.5 g ai/ha, 100=total damage to plant, 0=no damage to plant, read-out: plant damage rating, Barnyardgrass): 90%
- pest or weed control at 15.625 g/ha ([5]; Setaria faberi, post-emergence, 312 h, 15.625 g ai/ha, evaluated after 13 days (100=total damage to plant; 0=no damage to plant), read-out: Foxtail, Giant damage rating): 80%
- pest or weed control at 62.5 g/ha ([5]; Setaria faberi, post-emergence, 312 h, 62.5 g ai/ha, evaluated after 13 days, read-out: Foxtail, Giant damage rating (100=total damage to plant; 0=no damage to plant)): 80%
- pest or weed control at 250 g/ha ([5]; Setaria faberi, post-emergence, 312 h, 250 g ai/ha, evaluated after 13 days, read-out: damage to plant, Foxtail, Giant (100=total damage to plant; 0=no damage to plant)): 80%
- pest or weed control at 15.625 g/ha ([6]; Amaranthus retroflexus, post-emergence, 312 h, 15.625 g ai/ha, evaluated after 13 days (100=total damage to plant; 0=no damage to plant), read-out: Pigweed, Redroot damage rating): 0%
- pest or weed control at 62.5 g/ha ([6]; Amaranthus retroflexus, post-emergence, 312 h, 62.5 g ai/ha, evaluated after 13 days, read-out: Pigweed, Redroot damage rating (100=total damage to plant; 0=no damage to plant)): 30%
- pest or weed control at 250 g/ha ([6]; Amaranthus retroflexus, post-emergence, 312 h, 250 g ai/ha, evaluated after 13 days, read-out: damage to plant, Pigweed, Redroot (100=total damage to plant; 0=no damage to plant)): 60%
- plant injury at 15.625 g/ha (corn (Zea mays) [7]; Zea mays, post-emergence, 312 h, 15.625 g ai/ha, evaluated after 13 days (100=total damage to plant; 0=no damage to plant), read-out: Corn damage rating): 80%
- plant injury at 62.5 g/ha (corn (Zea mays) [7]; Zea mays, post-emergence, 312 h, 62.5 g ai/ha, evaluated after 13 days, read-out: Corn damage rating (100=total damage to plant; 0=no damage to plant)): 80%
- plant injury at 250 g/ha (corn (Zea mays) [7]; Zea mays, post-emergence, 312 h, 250 g ai/ha, evaluated after 13 days, read-out: damage to plant, Corn (100=total damage to plant; 0=no damage to plant)): 80%
- pest or weed control at 15.625 g/ha ([8]; Abutilon theophrasti, post-emergence, 312 h, 15.625 g ai/ha, evaluated after 13 days (100=total damage to plant; 0=no damage to plant), read-out: Velvetleaf damage rating): 0%
- pest or weed control at 62.5 g/ha ([8]; Abutilon theophrasti, post-emergence, 312 h, 62.5 g ai/ha, evaluated after 13 days, read-out: Velvetleaf damage rating (100=total damage to plant; 0=no damage to plant)): 10%
- pest or weed control at 250 g/ha ([8]; Abutilon theophrasti, post-emergence, 312 h, 250 g ai/ha, evaluated after 13 days, read-out: damage to plant, Velvetleaf (100=total damage to plant; 0=no damage to plant)): 40%
- pest or weed control at 15.625 g/ha ([9]; Ipomoea, post-emergence, 312 h, 15.625 g ai/ha, evaluated after 13 days (100=total damage to plant; 0=no damage to plant), read-out: Morningglory, Ivy-leaved damage rating): 60%
- pest or weed control at 62.5 g/ha ([9]; Ipomoea, post-emergence, 312 h, 62.5 g ai/ha, evaluated after 13 days, read-out: Morningglory, Ivy-leaved damage rating (100=total damage to plant; 0=no damage to plant)): 60%
- pest or weed control at 250 g/ha ([9]; Ipomoea, post-emergence, 312 h, 250 g ai/ha, evaluated after 13 days, read-out: damage to plant, Morningglory, Ivy-leaved (100=total damage to plant; 0=no damage to plant)): 70%
- pest or weed control at 15.625 g/ha ([10]; Echinochloa crus-galli, post-emergence, 312 h, 15.625 g ai/ha, evaluated after 13 days (100=total damage to plant; 0=no damage to plant), read-out: Barnyardgrass damage rating): 80%
- pest or weed control at 62.5 g/ha ([10]; Echinochloa crus-galli, post-emergence, 312 h, 62.5 g ai/ha, evaluated after 13 days, read-out: Barnyardgrass damage rating (100=total damage to plant; 0=no damage to plant)): 80%
- pest or weed control at 250 g/ha ([10]; Echinochloa crus-galli, post-emergence, 312 h, 250 g ai/ha, evaluated after 13 days, read-out: damage to plant, Barnyardgrass (100=total damage to plant; 0=no damage to plant)): 80%

SMILES: CN1C[C@H](c2ccc(C(F)(F)F)cc2)[C@@H](C(=O)Nc2cccc(F)n2)C1=O [Compound 1400]
- Foxtail, Giant damage rating (100=total damage to plant; 0=no damage to plant) ([1]; 15.625 g ai/ha): 60
- plant damage rating, Foxtail, Giant [1, 11]: 90
- Foxtail, Giant damage rating (100=total damage to plant; 0=no damage to plant) ([1]; 250 g ai/ha): 90
- Corn damage rating (100=total damage to plant; 0=no damage to plant) (corn (Zea mays) [2]; 15.625 g ai/ha): 20
- plant damage rating, Corn (corn (Zea mays) [2]; [11]): 40
- Corn damage rating (100=total damage to plant; 0=no damage to plant) (corn (Zea mays) [2]; 250 g ai/ha): 60
- Morning-glory, Ivy-leaved damage rating (100=total damage to plant; 0=no damage to plant) ([3]; 15.625 g ai/ha): 0
- plant damage rating, Morningglory, Ivy-leaved [3, 11]: 0
- Barnyardgrass damage rating (100=total damage to plant; 0=no damage to plant) ([4]; 15.625 g ai/ha): 30
- plant damage rating, Barnyardgrass [4, 11]: 80
- Barnyardgrass damage rating (100=total damage to plant; 0=no damage to plant) ([4]; 250 g ai/ha): 80
- Foxtail, Giant damage rating [5, 12]: 60
- Foxtail, Giant damage rating (100=total damage to plant; 0=no damage to plant) [5, 13]: 70
- damage to plant, Foxtail, Giant (100=total damage to plant; 0=no damage to plant) [5, 14]: 70
- Pigweed, Redroot damage rating [6, 12]: 20
- Pigweed, Redroot damage rating (100=total damage to plant; 0=no damage to plant) [6, 13]: 50
- damage to plant, Pigweed, Redroot (100=total damage to plant; 0=no damage to plant) [6, 14]: 60
- Corn damage rating (corn (Zea mays) [7]; [12]): 10
- Corn damage rating (100=total damage to plant; 0=no damage to plant) (corn (Zea mays) [7]; [13]): 20
- damage to plant, Corn (100=total damage to plant; 0=no damage to plant) (corn (Zea mays) [7]; [14]): 60
- Velvetleaf damage rating [8, 12]: 10
- Velvetleaf damage rating (100=total damage to plant; 0=no damage to plant) [8, 13]: 10
- damage to plant, Velvetleaf (100=total damage to plant; 0=no damage to plant) [8, 14]: 30
- Morningglory, Ivy-leaved damage rating [9, 12]: 0
- Morningglory, Ivy-leaved damage rating (100=total damage to plant; 0=no damage to plant) [9, 13]: 0
- damage to plant, Morningglory, Ivy-leaved (100=total damage to plant; 0=no damage to plant) [9, 14]: 0
- Barnyardgrass damage rating [10, 12]: 50
- Barnyardgrass damage rating (100=total damage to plant; 0=no damage to plant) [10, 13]: 70
- damage to plant, Barnyardgrass (100=total damage to plant; 0=no damage to plant) [10, 14]: 70
